Assay results as given in patent publication US11840686B2, “Modulation of prekallikrein (PKK) expression” (Ionis Pharmaceuticals, Inc., priority 2013, dated 2023).
Strand notation (5' to 3'): a small letter for the sugar, then the base; units joined by * are phosphorothioate-linked, units joined directly phosphodiester-linked; [ ] holds rarer units or linkages, { } end groups; capitals alone tell only the bases. e = 2'-O-(2-methoxyethyl) (MOE); [5mC] = 5-methylcytosine; d = 2'-deoxy (DNA)

Key:
human PKK mRNA [1] = test: Antisense inhibition of human PKK mRNA in HepaRG cells, 5,000 nM (Example 2); type: cell-based; conditions: HepaRG cells, 20,000 cells per well, electroporation with 5,000 nM antisense oligonucleotide, approx. 24 hours, PKK mRNA by RT-PCR (RTS3454), relative to untreated control cells
Method in brief: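 Percent inhibition of PKK mRNA is relative to untreated control, with qRT-PCR (probe set RTS3454) values adjusted to total RNA by RIBOGREEN. Oligonucleotides, fully phosphorothioate 2′-MOE gapmers, were delivered at 5,000 nM by electroporation into 20,000 HepaRG cells/well for about 24 h.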

human PKK mRNA [2] = test: Human PKK mRNA in liver of human KLKB1 transgenic mice (Example 7); type: in vivo; conditions: twice a week for 3 weeks
Procedure: (§1) Transgenic mice containing a 37,390 base pair fragment of the human KLKB1 gene sequence (chromosome 4: position 187148672-187179625, accession no: NC_000004.11) were treated with ISIS antisense oligonucleotides selected from studies described above, which were evaluated for efficacy in this model.
(§2) Groups of transgenic mice were injected subcutaneously twice a week for 3 weeks with 2.5 mg/kg/week, 5.0 mg/kg/week, 10 mg/kg/week or 20 mg/kg/week of ISIS 546232, ISIS 546251, ISIS 546254, ISIS 546343, ISIS 546828, ISIS 547455, ISIS 547457, ISIS 547927, and ISIS 548048. One group of transgenic mice was injected subcutaneously twice a week for 3 weeks with PBS. Mice were euthanized 48 hours after the last dose, and organs and plasma were harvested for further analysis.
To evaluate the effect of ISIS oligonucleotides on target reduction, RNA was extracted from liver tissue for real-time PCR analysis of human PKK. Results are presented as percent inhibition of PKK mRNA, relative to PBS control.

PKK protein = test: Plasma PKK protein levels in human KLKB1 transgenic mice (Example 7); type: in vivo; conditions: plasma, twice a week for 3 weeks
Procedure: as §1, §2
Plasma PKK protein levels were evaluated in all groups. Results are presented as percent inhibition of PKK protein, relative to PBS control.

PKK mRNA = PKK mRNA in cynomolgus monkey liver (Example 8); type: in vivo; conditions: 40 mg/kg s.c., loading then weekly to week 13; day 87 or 88, 48 h after final dose
Procedure: Cynomolgus monkeys were treated with ISIS antisense oligonucleotides selected from studies described above. Antisense oligonucleotide efficacy and tolerability were evaluated. The human antisense oligonucleotides tested are cross-reactive with the rhesus genomic sequence (GENBANK Accession No. NW_001118167.1 truncated from nucleotides 2358000 to 2391000 and designated herein as SEQ ID NO: 18).
On day 87 or 88, 48 hours after the final dose, RNA was extracted from liver tissue for real-time PCR analysis of PKK using primer probe set RTS3455 (forward sequence […], designated herein as SEQ ID NO: 23; reverse sequence […], designated herein as SEQ ID NO: 24; probe sequence […], designated herein as SEQ ID NO: 25). The results were normalized to the housekeeping gene, Cyclophilin. Results are presented as percent inhibition of PKK mRNA, relative to PBS control.

human PKK mRNA [3] = test: Antisense inhibition of human PKK mRNA in HepaRG cells, 3,000 nM (Example 1); type: cell-based; conditions: relative to untreated control cells
Method in brief: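 Values give percent PKK mRNA reduction relative to untreated controls, normalised to RIBOGREEN total RNA. mRNA was quantified by real-time PCR (RTS3454) about 24 h after electroporation. Each 20-mer MOE gapmer was delivered at 3,000 nM into 20,000 HepaRG cells per well.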

human PKK mRNA [4] = test: Dose-dependent antisense inhibition of human PKK in HepaRG cells, 0.12-10.00 uM (Example 4); type: cell-based; conditions: electroporation, ~16 h
Procedure: Cells were plated at a density of 20,000 cells per well and transfected using electroporation with 0.12 μM, 0.37 μM, 1.11 μM, 3.33 μM, and 10.00 μM concentrations of antisense oligonucleotide. After a treatment period of approximately 16 hours, RNA was isolated from the cells and PKK mRNA levels were measured by quantitative real-time PCR. Human PKK primer probe set RTS3454 was used to measure mRNA levels. PKK mRNA levels were adjusted according to total RNA content, as measured by RIBOGREEN®. The antisense oligonucleotides were tested in a series of experiments that had similar culture conditions. Results are presented as percent inhibition of PKK, relative to untreated control cells.
The half maximal inhibitory concentration (IC50) of each oligonucleotide is also presented.

[5] = Table 4, HepaRG cells, electroporation with 3,000 nM antisense oligonucleotide, approx. 24 hours, PKK mRNA by RT-PCR (RTS3454)
[6] = Table 1, PKK mRNA, HepaRG cells, 3,000 nM, electroporation, ~24 h
[7] = Table 2, PKK mRNA, HepaRG cells, 3,000 nM, electroporation, ~24 h

| Substance | percent inhibition of PKK at 0.12 μM (human PKK mRNA [4]; Table 33, 0.12 μM) | percent inhibition of PKK at 0.37 μM (human PKK mRNA [4]; Table 33, 0.37 μM) | percent inhibition of PKK at 1.11 μM (human PKK mRNA [4]; Table 33, 1.11 μM) | percent inhibition of PKK at 3.33 μM (human PKK mRNA [4]; Table 33, 3.33 μM) | percent inhibition of PKK at 10.00 μM (human PKK mRNA [4]; Table 33, 10.00 μM) | IC50 (human PKK mRNA [4]; Table 33, PKK mRNA) | % inhibition (human PKK mRNA [3]; [6]) | percent inhibition of PKK at 0.12 μM (human PKK mRNA [4]; Table 32, 0.12 μM) | percent inhibition of PKK at 0.37 μM (human PKK mRNA [4]; Table 32, 0.37 μM) | percent inhibition of PKK at 1.11 μM (human PKK mRNA [4]; Table 32, 1.11 μM) | percent inhibition of PKK at 3.33 μM (human PKK mRNA [4]; Table 32, 3.33 μM) | percent inhibition of PKK at 10.00 μM (human PKK mRNA [4]; Table 32, 10.00 μM) | IC50 (human PKK mRNA [4]; Table 32, PKK mRNA) | further results |
| --- | --- | --- | --- | --- | --- | --- | --- | --- | --- | --- | --- | --- | --- | --- |
| 547455 (antisense eA*eT*eA*eT*e[5mC]*dA*dT*dG*dA*dT*dT*d[5mC]*d[5mC]*d[5mC]*dT*eT*e[5mC]*eT*eG*eA) [compound 547455] |  |  |  |  |  |  |  |  |  |  |  |  |  | % inhibition (human PKK mRNA [1]; Table 9 experiment): 88%; % inhibition (human PKK mRNA [1]; Table 10 experiment): 66%; % inhibition of PKK mRNA in the transgenic mice liver relative to the PBS control (human PKK mRNA [2]; 2.5 mg/kg/week sc): 0%; % inhibition of PKK mRNA in the transgenic mice liver relative to the PBS control (human PKK mRNA [2]; 5 mg/kg/week sc): 69%; % inhibition of PKK mRNA in the transgenic mice liver relative to the PBS control (human PKK mRNA [2]; 10 mg/kg/week sc): 45%; % inhibition of PKK mRNA in the transgenic mice liver relative to the PBS control (human PKK mRNA [2]; 20 mg/kg/week sc): 62%; % inhibition of PKK protein levels in the transgenic mice relative to the PBS control (PKK protein; 2.5 mg/kg/week sc): 0%; % inhibition of PKK protein levels in the transgenic mice relative to the PBS control (PKK protein; 5 mg/kg/week sc): 0%; % inhibition of PKK protein levels in the transgenic mice relative to the PBS control (PKK protein; 10 mg/kg/week sc): 32%; % inhibition of PKK protein levels in the transgenic mice relative to the PBS control (PKK protein; 20 mg/kg/week sc): 78%; % inhibition of PKK mRNA in the cynomolgus monkey liver relative to the PBS control (PKK mRNA): 90% |
| 531234 (e[5mC]*eA*e[5mC]*eT*eG*dT*dA*d[5mC]*dT*dA*dG*dT*dT*dT*d[5mC]*e[5mC]*eT*eA*eT*eA; antisense) [compound 531234] | 24% | 21% | 47% | 72% | 82% | 1400 nM |  |  |  |  |  |  |  | % inhibition (human PKK mRNA [3]; [5]): 86% |
| 531236 (eA*eT*e[5mC]*eA*e[5mC]*dT*dG*dT*dA*d[5mC]*dT*dA*dG*dT*dT*eT*e[5mC]*e[5mC]*eT*eA; antisense) [compound 531236] | 4% | 28% | 59% | 85% | 93% | 800 nM |  |  |  |  |  |  |  | % inhibition (human PKK mRNA [3]; [5]): 87% |
| 530992 (eG*eT*e[5mC]*eA*e[5mC]*dA*dT*dT*d[5mC]*dA*dA*dT*dT*d[5mC]*dT*eT*e[5mC]*eT*e[5mC]*e[5mC]; antisense) [compound 530992] |  |  |  |  |  |  | 70% | 0% | 50% | 63% | 83% | 80% | 700 nM |  |
| 531110 (antisense eG*e[5mC]*e[5mC]*eT*eG*dT*dT*dT*dG*dG*dT*dG*dG*dT*d[5mC]*eT*e[5mC]*eT*eT*e[5mC]) [compound 531110] | 14% | 29% | 49% | 76% | 85% | 1100 nM |  |  |  |  |  |  |  | % inhibition (human PKK mRNA [3]; Table 3, HepaRG cells, electroporation with 3,000 nM antisense oligonucleotide, approx. 24 hours, PKK mRNA by RT-PCR (RTS3454)): 86% |
| 531004 (eA*eG*eA*eG*eT*dA*dA*d[5mC]*d[5mC]*dA*dG*dA*dG*d[5mC]*dT*e[5mC]*e[5mC]*e[5mC]*eT*eT; antisense) [compound 531004] |  |  |  |  |  |  | 76% | 0% | 14% | 25% | 71% | 84% | 2100 nM |  |
| 531022 (eG*eT*eA*eA*eT*dG*dT*d[5mC]*dT*dG*dA*d[5mC]*dA*dG*dA*eT*eT*eT*eA*eA; antisense) [compound 531022] |  |  |  |  |  |  |  | 0% | 0% | 32% | 62% | 77% | 2200 nM | % inhibition (human PKK mRNA [3]; [7]): 74% |
| 531005 (e[5mC]*eT*e[5mC]*eA*eA*dA*dG*dA*dG*dT*dA*dA*d[5mC]*d[5mC]*dA*eG*eA*eG*e[5mC]*eT; antisense) [compound 531005] |  |  |  |  |  |  | 76% | 14% | 28% | 61% | 73% | 77% | 900 nM |  |
| 530933 (antisense eT*eG*eG*eA*eG*dG*dT*dG*dA*dG*dT*d[5mC]*dT*d[5mC]*dT*eT*eG*eT*e[5mC]*eA) [compound 530933] |  |  |  |  |  |  | 76% | 15% | 13% | 42% | 67% | 66% | 1700 nM |  |
| 531071 (e[5mC]*eT*eG*e[5mC]*eT*d[5mC]*dT*dG*dT*dG*dT*dT*dT*dT*d[5mC]*eT*e[5mC]*eT*eA*eA; antisense) [compound 531071] | 23% | 37% | 56% | 83% | 83% | 700 nM |  |  |  |  |  |  |  | % inhibition (human PKK mRNA [3]; [7]): 73% |
